Measured values as given in US11478466B2, “Small molecule promoting osteoblast differentiation” (Cornell University, priority 2019, dated 2022).

Experiments:
[1] = test system: alkaline phosphatase (ALP)
[2] = test system: RAW 264.7 murine macrophage cell line; test: Osteoclast differentiation (TRAP staining, qRT-PCR) in RAW 264.7 cells; type: cell-based, mouse
Description: To address the specificity of DIPQUO for stimulating an osteogenic versus osteoclastic program, the RAW 264.7 murine macrophage cell line was assayed for osteoclast differentiation by staining for tartrate-resistant acid phosphatase (TRAP) to distinguish multinucleated osteoclasts from macrophages. […] Thus, DIPQUO appears to be primarily supportive of osteogenesis.
The RAW 264.7 macrophage cell line was purchased from ATCC and maintained in DMEM with 10% FBS. Cells were treated with 10 μM DIPQUO or 50 ng/ml RANKL (Sigma) for 4 days. Cells were fixed in 70% acetone/10% formaldehyde/20% citrate and TRAP staining was achieved using the Leukocyte Acid Phosphatase kit (Sigma 387A-1KT).
For quantitative RT-PCR analysis of gene expression in C2C12 cultures, cells were treated for 2 days with 10 μM DIPQUO and harvested into Trizol reagent (Invitrogen). One microgram of RNA was reverse transcribed using the VILO-RT kit (Invitrogen) to generate cDNA, which was diluted 1:25 in RNase-free H2O for qPCR with Sybr green using the Roche 480 II LightCycler and the 2^−ΔΔCT method (Livak and Schmittgen, 2001). For analysis of osteoclast gene expression, RAW 264.7 cells were treated with DMSO, 50 ng/ml RANKL, or 10 μM DIPQUO for 4 days, then harvested into Trizol reagent and processed as above. Mouse qPCR primers are as follows. Runx2: F([…]) (SEQ ID NO:1); R([…]) (SEQ ID NO:2); Dlx5: F([…]) (SEQ ID NO:3); R([…]) (SEQ ID NO:4); Osterix: F([…]) (SEQ ID NO:5); R([…]) (SEQ ID NO:6); ALP: F([…]) (SEQ ID NO:7); R([…]) (SEQ ID NO:8); Osteocalcin: F([…]) (SEQ ID NO:9); R([…]) (SEQ ID NO:10); Osteoactivin: F([…]) (SEQ ID NO:11); R([…]) (SEQ ID NO:12); CTSK: F([…]) (SEQ ID NO:13); R([…]) (SEQ ID NO:14); MMP9: F([…]) (SEQ ID NO:15); R([…]) (SEQ ID NO:16); Gapdh F([…]) (SEQ ID NO:17); R([…]) (SEQ ID NO:18). RNA-seq studies were carried out with the assistance of the Weill Cornell Genomics Core Facility, using the Illumina HiSeq4000 next-generation sequencer to generate reads from cDNA libraries generated from three biological replicates of day 2 DMSO- or DIPQUO-treated C2C12 cells. […]

AP-1 response element = AP-1 response element luciferase reporter assay; type: cell-based; settings: 293T HEK cells, 7 hours, various concentrations
Description: For AP-1 reporter assays, 293T HEK cells were seeded at 0.25×10^6 cells/well of a gelatin-coated 24-well plate one day before transfection. Plasmid transfections were performed using Lipofectamine LTX (Invitrogen) according to manufacturer's protocol. Briefly, 293T HEK cells were co-transfected with pGL4.44 AP1 [luc2P/AP1 RE/Hygro] reporter plasmid (Promega) and SV40Renilla plasmid as a transfection control. 24 hours after transfection, cells were incubated in serum free DMEM media for 24 hours. The following day, cells were treated with 10 ng/ml PMA (Phorbol 12-myristate 13-acetate; Tocris) or indicated concentration of DIPQUO in serum free DMEM for 7 hours prior to lysis with 1× Passive Lysis buffer (Promega). Luciferase expression was measured using Dual-Glo Luciferase Assay (Promega).

[3] = test system: PI3K/Akt, ERK, TGF-β/SMAD2/3, BMP/SMAD1/5/9; test: Western blotting of other signaling effectors in C2C12 cells; type: cell-based, mouse
Description: Whole cell extracts were collected from C2C12 or BRITER cells in complete lysis buffer (20 mM Tris, 150 mM NaCl, 50 mM NaF, 1% NP40 substitute, HALT protease inhibitor cocktail (ThermoScientific). Proteins were resolved by electrophoresis on pre-cast 10% NuPage Bis-Tris gels (Invitrogen) and transferred to PVDF membranes (Bio-Rad). Membranes were blocked in 5% BSA-TBS-0.5% Tween-20 for 15 minutes, then incubated at 4° overnight with primary antibodies. Antibodies used were: rabbit anti-phospho-p38 MAPK (cat. no. 9211), anti-p38 MAPK XP (8690), anti-phospho-SMAD1/5 (9516), anti-SMAD1 XP (6944), anti-phospho-SMAD2/3 (8828), anti-SMAD2/3 XP (8685), anti-phospho-JNK (4668), anti-SAPK/JNK (9252), anti-phospho-Akt XP (4060), pan anti-Akt (4691), anti-phospho ERK p42/p44 (4377), anti-ERK p42/p44 (9102), anti-phospho-MKK3/6 (12280), anti-MKK3 (8535), anti-phospho-TAK1 (4531), anti-TAK1 (5206), anti-HA (3274), and anti-FLAG (14793); all from Cell Signaling); and mouse anti-p38α (cat. no. 33-1300), anti-p38β (33-8700; both ThermoFisher) and anti-β-actin (Sigma A1978). Proteins were visualized with HRP-conjugated secondary antibodies (Bio-Rad) with WestPico (ThermoFisher) or Immobilon (Millipore) chemiluminescence reagents. Images were obtained and analyzed for relative densitometric relationships on a LI-COR C-DiGit scanner using Image Studio software.

p38-β = test: Isoform-specific immunoprecipitation, p38-β activity in C2C12 cells; type: cell-based, mouse; settings: C2C12, 10 μM DIPQUO
Excerpt: There are four separate p38 isoforms: α, β, γ, and δ. The respective roles of the α and β isoforms in bone differentiation have been dissected to the extent that p38-β is known to be involved specifically in skeletogenesis (Greenblatt et al., 2010), while p38-α has roles that are both wide-ranging and highly specific, for instance in dentition (Greenblatt et al., 2015). Accordingly, we used small interfering RNA-mediated knockdown to probe the specificity of DIPQUO to block the activity of one or the other isoform (FIG. 6E). […] To confirm the biological significance of this observation, the α and β isoforms were immunoprecipitated from C2C12 cells and analyzed for relative activity levels.

**Q.** `Cc1cc(C)c2[nH]c(=O)c(-c3[nH]cnc3-c3ccccc3)cc2c1` [RU-0226606, 6,8-dimethyl-3-(4-phenyl-1H-imidazol-5-yl)quinolin-2(1H)-one] was tested. Which “RFU Score (10 μM)” value ([1]; 154-analog library, 10 μM, C2C12, duplicate) did it give?
**A.** Its value is 3104.

**Q.** What about the “Fluo. Z Score” value ([1]; SAR of library and proprietary analogs, AttoPhos assay, C2C12) of the same molecule?
**A.** The value was 34.56 ± 1.80.

**Q.** And the “RFU Score Threshold ≥ 800” value ([1]; primary screen, 10 μM, C2C12, 4 days, Ex 450/Em 580 nm, rank in brackets not taken)?
**A.** Its value is 4000 (1).

**Q.** What about the “Fluorescence Z Score Threshold ≥ 10” value ([1]; primary screen, 10 μM, C2C12, 4 days, Z score on DMSO control wells) of the same molecule?
**A.** Its value is 94.38 (1).

**Q.** What about the “expression of CTSK and MMP9 (qRT-PCR)” value ([2]; RAW 264.7, 10 μM, 4 days) of the same molecule?
**A.** Its value is “upregulated, albeit to a lower level compared with RANKL induction”.

**Q.** And the “TRAP staining of multinucleated osteoclasts” value ([2]; RAW 264.7, 4 days, DIPQUO 10 μM, RANKL 50 ng/ml)?
**A.** Its value is “comparatively few TRAP-positive cells”.

**Q.** And the “AP-1 response element luciferase reporter activation” value (AP-1 response element)?
**A.** Its value is “Neither did DIPQUO stimulate activation”.

**Q.** What about the “other pathways (PI3K/Akt, ERK, TGF-β/SMAD2/3, BMP/SMAD1/5/9)” value [3] of the same molecule?
**A.** Its value is “no change observed”.

**Q.** What about the “p38-β isoform activity after immunoprecipitation” value (p38-β) of the same molecule?
**A.** The value was “significantly activated”.
